# Assay results reported in patent US20110152362A1, “METHODS OF TREATING EPILEPTOGENESIS AND EPILEPSY” (priority 2004, published 2011).
# Marks after values point to notes of the source that are not given here.
# System: rats subjected to li-pilo SE
# Experiment: Example 2: quantification of cell densities 14 days after li-pilo SE;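 further: Thionine-stained 20 µm brain sections, neurons with cell bodies above 10 µm counted, value is the mean of 12 fields per structure from three adjacent sections, both sides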
# Conditions: 14 days after li-pilo SE
smiles,measurement,setting,value
NC(=O)OC[C@@H](O)c1ccccc1Cl [TC],number of neuronal cell bodies: Thalamus Central medial,pilo-TC30 (TC 30 mg/kg),75.6 ± 7.7
same,"number of neuronal cell bodies: Thalamus Dorsolateral, medial, dorsal",pilo-TC30 (TC 30 mg/kg),64.2 ± 9.3**°°
same,"number of neuronal cell bodies: Thalamus Dorsolateral, ventral lateral",pilo-TC30 (TC 30 mg/kg),8.8 ± 2.8
same,number of neuronal cell bodies: Thalamus Mediodorsal central,pilo-TC30 (TC 30 mg/kg),26.9 ± 0.6
same,number of neuronal cell bodies: Thalamus Mediodorsal lateral,pilo-TC30 (TC 30 mg/kg),20.5 ± 0.7
same,number of neuronal cell bodies: Thalamus Mediodorsal medial,pilo-TC30 (TC 30 mg/kg),11.5 ± 2.5
same,number of neuronal cell bodies: Amygdala Basolateral,pilo-TC60 (TC 60 mg/kg),27.8 ± 4.3**°°
same,"number of neuronal cell bodies: Amygdala Medial, dorsal anterior",pilo-TC60 (TC 60 mg/kg),58.4 ± 2.8**°
same,"number of neuronal cell bodies: Amygdala Medial, ventral posterior",pilo-TC60 (TC 60 mg/kg),26.2 ± 2.9
same,"number of neuronal cell bodies: Cerebral cortex Entorhinal, layer II, dorsal",pilo-TC60 (TC 60 mg/kg),23.9 ± 0.5
same,"number of neuronal cell bodies: Cerebral cortex Entorhinal, layer II, ventral",pilo-TC60 (TC 60 mg/kg),23.3 ± 0.8
same,"number of neuronal cell bodies: Cerebral cortex Entorhinal, layer III/IV, dorsal",pilo-TC60 (TC 60 mg/kg),23.2 ± 0.8
same,"number of neuronal cell bodies: Cerebral cortex Entorhinal, layer III/IV, ventral",pilo-TC60 (TC 60 mg/kg),16.5 ± 2.2
same,"number of neuronal cell bodies: Cerebral cortex Piriform, layer II, dorsal",pilo-TC60 (TC 60 mg/kg),27.5 ± 2.8**°°
same,"number of neuronal cell bodies: Cerebral cortex Piriform, layer II, ventral",pilo-TC60 (TC 60 mg/kg),13.7 ± 4.2
same,"number of neuronal cell bodies: Cerebral cortex Piriform, layer III",pilo-TC60 (TC 60 mg/kg),6.4 ± 2.3
same,number of neuronal cell bodies: Hippocampus CA1 area,pilo-TC60 (TC 60 mg/kg),31.9 ± 44**°°
same,number of neuronal cell bodies: Hippocampus CA3 area,pilo-TC60 (TC 60 mg/kg),31.6 ± 1.4
same,number of neuronal cell bodies: Hippocampus Hilus,pilo-TC60 (TC 60 mg/kg),32.8 ± 3.3
same,number of neuronal cell bodies: Thalamus Central medial,pilo-TC60 (TC 60 mg/kg),83.7 ± 9.6
same,"number of neuronal cell bodies: Thalamus Dorsolateral, medial, dorsal",pilo-TC60 (TC 60 mg/kg),77.5 ± 3.9**°°
same,"number of neuronal cell bodies: Thalamus Dorsolateral, ventral lateral",pilo-TC60 (TC 60 mg/kg),56.7 ± 8.7
same,number of neuronal cell bodies: Thalamus Mediodorsal central,pilo-TC60 (TC 60 mg/kg),24.1 ± 1**^
same,number of neuronal cell bodies: Thalamus Mediodorsal lateral,pilo-TC60 (TC 60 mg/kg),18.9 ± 0.6
same,number of neuronal cell bodies: Thalamus Mediodorsal medial,pilo-TC60 (TC 60 mg/kg),19.1 ± 2.6
same,number of neuronal cell bodies: Amygdala Basolateral,pilo-TC90 (TC 90 mg/kg),40.7 ± 1.6°°
same,"number of neuronal cell bodies: Amygdala Medial, dorsal anterior",pilo-TC90 (TC 90 mg/kg),72.2 ± 5.7°°
same,"number of neuronal cell bodies: Amygdala Medial, ventral posterior",pilo-TC90 (TC 90 mg/kg),30.7 ± 3.7°°
same,"number of neuronal cell bodies: Cerebral cortex Entorhinal, layer II, dorsal",pilo-TC90 (TC 90 mg/kg),26.3 ± 0.9
same,"number of neuronal cell bodies: Cerebral cortex Entorhinal, layer II, ventral",pilo-TC90 (TC 90 mg/kg),25.4 ± 1.1°^
same,"number of neuronal cell bodies: Cerebral cortex Entorhinal, layer III/IV, dorsal",pilo-TC90 (TC 90 mg/kg),26.7 ± 0.8
same,"number of neuronal cell bodies: Cerebral cortex Entorhinal, layer III/IV, ventral",pilo-TC90 (TC 90 mg/kg),23.7 ± 1.5°°
same,"number of neuronal cell bodies: Cerebral cortex Piriform, layer II, dorsal",pilo-TC90 (TC 90 mg/kg),32.4 ± 1.1°°
same,"number of neuronal cell bodies: Cerebral cortex Piriform, layer II, ventral",pilo-TC90 (TC 90 mg/kg),18.4 ± 4.0°°
same,"number of neuronal cell bodies: Cerebral cortex Piriform, layer III",pilo-TC90 (TC 90 mg/kg),9 ± 3.0°°
same,number of neuronal cell bodies: Hippocampus CA1 area,pilo-TC90 (TC 90 mg/kg),47.7 ± 6.6*°
same,number of neuronal cell bodies: Hippocampus CA3 area,pilo-TC90 (TC 90 mg/kg),35.1 ± 2.9
same,number of neuronal cell bodies: Hippocampus Hilus,pilo-TC90 (TC 90 mg/kg),37.5 ± 3.1
same,number of neuronal cell bodies: Thalamus Central medial,pilo-TC90 (TC 90 mg/kg),88.2 ± 8.5^
same,"number of neuronal cell bodies: Thalamus Dorsolateral, medial, dorsal",pilo-TC90 (TC 90 mg/kg),79.4 ± 3.1**°°
same,"number of neuronal cell bodies: Thalamus Dorsolateral, ventral lateral",pilo-TC90 (TC 90 mg/kg),71.8 ± 5.3°°*
same,number of neuronal cell bodies: Thalamus Mediodorsal central,pilo-TC90 (TC 90 mg/kg),27.4 ± 1.5^
same,number of neuronal cell bodies: Thalamus Mediodorsal lateral,pilo-TC90 (TC 90 mg/kg),22 ± 1.2*°
same,number of neuronal cell bodies: Thalamus Mediodorsal medial,pilo-TC90 (TC 90 mg/kg),23.1 ± 2.8°°
same,number of neuronal cell bodies: Amygdala Basolateral,pilo-TC120 (TC 120 mg/kg),42.7 ± 1.3°°
same,"number of neuronal cell bodies: Amygdala Medial, dorsal anterior",pilo-TC120 (TC 120 mg/kg),80.2 ± 2.6°°
same,"number of neuronal cell bodies: Amygdala Medial, ventral posterior",pilo-TC120 (TC 120 mg/kg),34.7 ± 1.7°°
same,"number of neuronal cell bodies: Cerebral cortex Entorhinal, layer II, dorsal",pilo-TC120 (TC 120 mg/kg),27.3 ± 0.5°°
same,"number of neuronal cell bodies: Cerebral cortex Entorhinal, layer II, ventral",pilo-TC120 (TC 120 mg/kg),25.1 ± 0.6^
same,"number of neuronal cell bodies: Cerebral cortex Entorhinal, layer III/IV, dorsal",pilo-TC120 (TC 120 mg/kg),26.4 ± 0.7°°
same,"number of neuronal cell bodies: Cerebral cortex Entorhinal, layer III/IV, ventral",pilo-TC120 (TC 120 mg/kg),24.5 ± 1.4°°
same,"number of neuronal cell bodies: Cerebral cortex Piriform, layer II, dorsal",pilo-TC120 (TC 120 mg/kg),35.2 ± 1.1°°
same,"number of neuronal cell bodies: Cerebral cortex Piriform, layer II, ventral",pilo-TC120 (TC 120 mg/kg),30.5 ± 1.3°°
same,"number of neuronal cell bodies: Cerebral cortex Piriform, layer III",pilo-TC120 (TC 120 mg/kg),15 ± 2.2°°
same,number of neuronal cell bodies: Hippocampus CA1 area,pilo-TC120 (TC 120 mg/kg),65.5 ± 2.9°°
same,number of neuronal cell bodies: Hippocampus CA3 area,pilo-TC120 (TC 120 mg/kg),39.8 ± 1.5
same,number of neuronal cell bodies: Hippocampus Hilus,pilo-TC120 (TC 120 mg/kg),44.8 ± 2.9
same,number of neuronal cell bodies: Thalamus Central medial,pilo-TC120 (TC 120 mg/kg),108.2 ± 6.6° ^
same,"number of neuronal cell bodies: Thalamus Dorsolateral, medial, dorsal",pilo-TC120 (TC 120 mg/kg),89.8 ± 3.7*°
same,"number of neuronal cell bodies: Thalamus Dorsolateral, ventral lateral",pilo-TC120 (TC 120 mg/kg),79.0 ± 4.7°°
same,number of neuronal cell bodies: Thalamus Mediodorsal central,pilo-TC120 (TC 120 mg/kg),29.9 ± 1.7°^
same,number of neuronal cell bodies: Thalamus Mediodorsal lateral,pilo-TC120 (TC 120 mg/kg),24.4 ± 1.1°°
same,number of neuronal cell bodies: Thalamus Mediodorsal medial,pilo-TC120 (TC 120 mg/kg),28.6 ± 0.8°°
